Values quoted from earlier work as cited in patent US20250194589A1, “AGROCHEMICAL EMULSIFIABLE COMPOSITION” (priority 2022, published 2025).
Where two headings read alike, the source gives them in different places.

Tests used:
[1] = not given; remark: listed apart in the source
[2] = measurement method: Flask shaking

| Compound | Degree of water-solubility ([1]; 20° C.) [ng/mL] | LogPow (measurement method not printed) | LogPow [2] | further results |
| --- | --- | --- | --- | --- |
| O=C(NC(=O)c1c(F)cccc1F)Nc1ccc(OC(F)(F)C(F)OC(F)(F)F)c(Cl)c1 (stereo not drawn) [Novaluron] | 3 |  |  | LogPow (measurement method: HPLC): 4.3 |
| CON=CNC(=O)c1ccc(C2=NOC(c3cc(Cl)cc(Cl)c3)(C(F)(F)F)C2)cc1C (stereo not drawn) [Fluxametamide] | 54 |  |  | LogPow (measurement method: HPLC): 5.0 |
| CC(C)C(C(=O)OC(C#N)c1cccc(Oc2ccccc2)c1)c1ccc(Cl)cc1 (stereo not drawn) [Fenvalerate] |  | 6.53 |  |  |
| Cc1cc(C)c(C2=C(OC(=O)CC(C)(C)C)C3(CCCC3)OC2=O)c(C)c1 [Spiromesifen] | 130 |  |  | LogPow (measurement method: HPLC): 4.55 |
| CCOc1cc(C(C)(C)C)ccc1C1COC(c2c(F)cccc2F)=N1 (stereo not drawn) [Etoxazole] | 70.4 | 5.52 ± 0.58 |  |  |
| CC(C)[C@H](Nc1ccc(C(F)(F)F)cc1Cl)C(=O)OC(C#N)c1cccc(Oc2ccccc2)c1 (stereo partly drawn) [Fluvalinate] | 1.12 |  | 4.26 |  |
| Clc1ccccc1-c1nnc(-c2ccccc2Cl)nn1 [Clofentezine] |  |  |  | LogPow (measurement method: HPLC): 4.1 |
| CCOP(=S)(OCC)Oc1nc(Cl)c(Cl)cc1Cl [Chlorpyrifos] |  |  | 4.70 | Degree of water-solubility ([1]; 25° C.): 941 ng/mL |
| CCc1nn(C)c(C(=O)NCc2ccc(Oc3ccc(C)cc3)cc2)c1Cl [Tolfenpyrad] |  | Tolfenpyrad (LogPow = 5.61) | 5.6 | LogPow (measurement method not printed, listed as tolfenpyrad): 5.61; Degree of water-solubility ([1]; 25° C.): 87 ng/mL |
| COC(c1ccc(N(C(=O)c2c(C)nn(C)c2C)C(=O)C(C)C)cc1CC(C)C)(C(F)(F)F)C(F)(F)F [Pyflubumide] | 270 |  | 5.34 |  |
| Abamectin |  |  | 4.4 ± 0.3 | Degree of water-solubility ([1]; 25° C.): 1210 ng/mL |
| Lepimectin |  |  |  | LogPow (measurement method: HPLC): 6.5; Degree of water-solubility ([1]; 25° C.): 103.47 ng/mL |
| Milbemectin [Milbemectin (M.A3)] | 880 |  | >4.94 |  |
| C/C(=N\C#N)N(C)Cc1ccc(Cl)nc1 [Acetamiprid, acetamiprid] |  | Acetamiprid (LogPow = 0.8) |  | LogPow (measurement method not printed, listed as acetamiprid): 0.8 |
| Emamectin benzoate |  | 5.7 |  |  |
| Cc1nn(C)c(/C(OC(=O)C(C)(C)C)=C(\C#N)c2ccc(C(C)(C)C)cc2)c1C [Cyenopyrafen] | 300 |  |  | LogPow (measurement method: HPLC): 5.6 |
| CC(C)(C)c1ccc(CCOc2ncnc3ccccc23)cc1 [Fenazaquin] |  | 5.71 |  |  |
| CCC(C)(C)C(=O)OC1=C(c2ccc(Cl)cc2Cl)C(=O)OC12CCCCC2 [Spirodiclofen] | 50 |  | 5.83 |  |
| CCOP(=O)(SC(C)CC)SC(C)CC (stereo not drawn) [Cadusafos] |  |  |  | LogPow (measurement method: HPLC): 4.08 |
| CCCSP(=S)(OCC)Oc1ccc(Cl)cc1Cl (stereo not drawn) [Prothiofos] |  |  | 5.67 |  |
| CCCCN(CCCC)SN(C)C(=O)Oc1cccc2c1OC(C)(C)C2 [Carbosulfan] |  | 5.45 |  | Degree of water-solubility ([1]; 25° C.): 3000 ng/mL |

| Compound | Degree of water-solubility ([1]; 20° C.) [ng/mL] | LogPow (measurement method not printed) | LogPow [2] | further results |
| --- | --- | --- | --- | --- |
| CCCOc1cc(C(F)(F)F)ccc1O[C@H]1C[C@H]2CCC[C@@H](C1)N2Oc1ccc(C(F)(F)F)cn1 [Acynonapyr] | 0.889 | 6.5 |  |  |
| CCc1nn(C)c(C(=O)NCc2ccc(C(C)(C)C)cc2)c1Cl [Tebufenpyrad] |  |  | 4.93 |  |
| ClC1=C(Cl)C(Cl)(C2(Cl)C(Cl)=C(Cl)C(Cl)=C2Cl)C(Cl)=C1Cl [Dienochlor] |  | 7.2 |  | Degree of water-solubility ([1]; 25° C.): 26 ng/mL |
| Cc1ccc(/N=C/N(C)/C=N/c2ccc(C)cc2C)c(C)c1 [Amitraz] |  | 5.5 |  | Degree of water-solubility ([1]; 25° C.): 94 ng/mL |
| Cc1c(F)c(F)c(COC(=O)[C@@H]2[C@H](/C=C(\Cl)C(F)(F)F)C2(C)C)c(F)c1F (racemic) [Tefluthrin] |  | 6.4 |  |  |
| O=C(NC(=O)c1c(F)cccc1F)Nc1cc(Cl)c(OC(F)(F)C(F)C(F)(F)F)cc1Cl (stereo not drawn) [Lufenuron] |  |  |  | LogPow (measurement method: HPLC): 5.12; Degree of water-solubility ([1]; 25° C.): <60 ng/mL |
| CC(C)[C@H](C(=O)OC(C#N)c1cccc(Oc2ccccc2)c1)c1ccc(OC(F)F)cc1 (stereo partly drawn) [Flucythrinate] |  | 4.74 |  |  |
| Milbemectin [Milbemectin (M.A4)] | 7200 |  | >5.06 |  |
| CC1(C)[C@H](C(=O)O[C@H](C#N)c2cccc(Oc3ccccc3)c2)[C@@H]1/C=C\C(=O)OC(C(F)(F)F)C(F)(F)F [Acrinathrin] |  |  | 5.6 |  |
| CC1(C)C(/C=C(\Cl)C(F)(F)F)C1C(=O)OC(C#N)c1cccc(Oc2ccccc2)c1 (stereo not drawn) [Cyhalothrin] | 4.2 | 6.9 |  |  |
| CCCSP(=O)(OCC)Oc1ccc(Br)cc1Cl (stereo not drawn) [Profenofos] |  | 4.435 |  |  |
| CC1(C)C(C=C(Cl)Cl)C1C(=O)OCc1cccc(Oc2ccccc2)c1 (stereo not drawn) [Permethrin] |  |  | 6.36 |  |
| CCOC(=O)CCN(SN(C)C(=O)Oc1cccc2c1OC(C)(C)C2)C(C)C [Benfuracarb] |  |  | 4.22 |  |
| FC(F)(F)c1ccc(OCCCOc2c(Cl)cc(OCC=C(Cl)Cl)cc2Cl)nc1 [Pyridalyl] |  |  |  | LogPow (measurement method: HPLC): 8.1; Degree of water-solubility ([1]; 25° C.): 0.15 ng/mL |
| Pyrethrin |  | 5.6 |  | Degree of water-solubility ([1]; temperature not given): 9000 ng/mL |
| Cc1c(COC(=O)[C@@H]2[C@H](/C=C(\Cl)C(F)(F)F)C2(C)C)cccc1-c1ccccc1 (racemic) [Bifenthrin] |  |  |  | LogPow (measurement method: HPLC): 6.6; Degree of water-solubility ([1]; 20-25° C.): <0.1 ng/mL |
| CC1(C)C(C=C(Cl)Cl)C1C(=O)OC(C#N)c1ccc(F)c(Oc2ccccc2)c1 (stereo not drawn) [Cyfluthrin] |  | 6.00 |  |  |
| CCOc1ccc(C(C)(C)COCc2cccc(Oc3ccccc3)c2)cc1 [Etofenprox] | 22.5 |  |  | LogPow (measurement method: HPLC): 6.9 |
| COC(=O)N(C(=O)N1CO[C@@]2(C(=O)OC)Cc3cc(Cl)ccc3C2=N1)c1ccc(OC(F)(F)F)cc1 [Indoxacarb] |  |  | 4.65 | Degree of water-solubility ([1]; 25° C.): 200 ng/mL |
| COCCOC(=O)C(C#N)(C(=O)c1ccccc1C(F)(F)F)c1ccc(C(C)(C)C)cc1 (stereo not drawn) [Cyflumetofen] |  |  |  | LogPow (measurement method: HPLC): 4.3 |
